The numbers were not newly measured in patent US20090169619A1, “CARBAMAZEPINE EXTENDED RELEASE DOSAGE FORM” (CorePharma LLC, priority 2005, published 2009), which cites them from elsewhere.

For the molecule `NC(=O)N1c2ccccc2C=Cc2ccccc21` [Carbamazepine, 5H-Dibenz[b,f]azepine-5-carboxamide], the solubility in water result is recorded as “poor solubility”.
